Experimental data taken from patent publication US9603858B2, “Compositions for preventing and treating an immune system disorder” (RAISIO NUTRITION LTD., priority 2010, dated 2017).

How the values were obtained:
[1] = system: PBMCs from asthma patients; assay: Cytokine production in PHA stimulated PBMCs cultured ex vivo with sitostanol; format: cell-based, human; conditions: sitostanol 1.2 μM, 52 hours PHA stimulation
From the text: 20 people were enrolled in the study: 10 asthma patients and 10 healthy controls. Healthy controls were matched to the asthma patients in sex, age and body mass index (BMI). Exclusion criteria were smoking, diabetes, autoimmune diseases, inflammatory diseases, and the use of plant stanol or plant sterol enriched food products. Blood was taken twice from each participant, with a four-week interval. Peripheral blood mononuclear cells (PBMCs) were isolated and cultured with either cholesterol or sitostanol added to the culture. The concentration of PBMCs in the test culture was the same as in blood naturally. The concentrations of sitostanol and cholesterol were 1.2 μM. After 52 hours of stimulation with PHA (phytohemagglutinin), cytokine concentrations in the culture medium were determined. Cholesterol was added as a control to see whether the observed effects were specific plant stanol effects.

[2] = target: T1, TLR2 (Homo sapiens, UniProt O60603); assay: Mechanism of the Th1 shift: TLR2 activation; format: cell-based
T1 construct: endogenous in cells
T1 sequence (O60603 21-784): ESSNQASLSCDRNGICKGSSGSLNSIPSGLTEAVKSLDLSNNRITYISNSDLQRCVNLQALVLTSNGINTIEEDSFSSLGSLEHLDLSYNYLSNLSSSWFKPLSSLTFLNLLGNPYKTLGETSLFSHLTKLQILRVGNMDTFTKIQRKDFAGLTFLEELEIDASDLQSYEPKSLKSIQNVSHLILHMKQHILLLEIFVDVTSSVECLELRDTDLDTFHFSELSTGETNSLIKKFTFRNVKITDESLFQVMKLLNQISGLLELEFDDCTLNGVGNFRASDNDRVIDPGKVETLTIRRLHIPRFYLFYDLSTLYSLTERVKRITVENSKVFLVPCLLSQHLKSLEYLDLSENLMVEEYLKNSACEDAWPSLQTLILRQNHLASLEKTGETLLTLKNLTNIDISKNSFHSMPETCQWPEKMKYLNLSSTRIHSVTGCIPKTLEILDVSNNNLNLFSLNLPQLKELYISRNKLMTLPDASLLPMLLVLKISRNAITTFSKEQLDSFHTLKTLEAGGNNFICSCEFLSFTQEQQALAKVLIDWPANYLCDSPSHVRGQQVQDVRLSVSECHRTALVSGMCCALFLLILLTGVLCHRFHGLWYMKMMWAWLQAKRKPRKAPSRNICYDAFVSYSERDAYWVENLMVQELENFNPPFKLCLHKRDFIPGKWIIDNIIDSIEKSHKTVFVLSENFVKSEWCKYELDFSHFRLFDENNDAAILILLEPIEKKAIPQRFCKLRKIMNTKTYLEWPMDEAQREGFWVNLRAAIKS

CC[C@H](CC[C@@H](C)[C@H]1CC[C@H]2[C@@H]3CC[C@H]4C[C@@H](O)CC[C@]4(C)[C@H]3CC[C@]12C)C(C)C [sitostanol]
IFNγ concentration in the culture medium, change vs. control condition ([1]; FIG. 1): increases | IL-2 concentration in the culture medium, change vs. control condition ([1]; FIG. 1): increases | IL-10 production in PBMCs from asthma patients, change vs. control condition ([1]; FIG. 2): induces IL-10 production | Th1 shift via activation of TLR2 [2]: induces this Th1 shift via activation of TLR2
